# In patent US20040142968A1, “Method and kit for treating lower bowel pain” (priority 2003, published 2004):
# Legend:
# [1] = test system: patient with bowel pain associated with menses; conditions: open injection at 4 hours after the placebo saline administration
# Procedure: The patients were greeted in a waiting room, escorted to an examination room, and introduced to the study. […] A one-hour NH condition preceded either the RL or RP administration in both sessions. Thus, patients rated their rectal pain for one hour at 15-minute intervals before injection of the rectal agent (NH) and 15 min, 30 min, 45 min, 1 hour, 2 hours, 4 hours, and 6 hours afterwards. Both agents were applied through a plastic syringe. […] After all of the sessions were completed, the patients were debriefed.
# [2] = test system: patients with pain associated with IBS
# Source text: Ten Caucasian pre-menopausal women with IBS participated in the study. The mean age was 33 (±4) years. All participants completed a GI symptom questionnaire and received a physical examination by an experienced gastroenterologist. The diagnosis of IBS was made based on the ROME II criteria and exclusion of organic disease (Thompson et al., 1999). All the patients had diarrhea-predominant IBS and had symptoms for at least 5 years. All of the IBS patients were carefully screened to verify that each patient had no clinical criteria for fibromyalgia or chronic pain condition.
# All subjects were asked to fast for 12 hours and self-administer one Fleets® enema (CB Fleet Co., Inc., Lynchberg, Va.) at least two hours prior to arriving for the experimental procedures. […] A validated visual analogue scale was used to measure the subjects' perceived pain (Price, 1994).
# A one-hour NH condition preceded either the RL or RP administration in both sessions. Thus, patients rated their rectal pain for one hour at 15-minute intervals before injection of the rectal agent (NH) and 15 min, 30 min, 45 min, 1 hour, 2 hours, 4 hours, and 6 hours afterwards. Both agents were applied through a plastic syringe.
# The pain rating at each post-treatment time point was subtracted from the baseline rating to create a pain intensity difference score (PID) for each post-treatment time point of each patient. […]
smiles,measurement,setting,value
CCN(CC)CC(=O)Nc1c(C)cccc1C [lidocaine],effect of open injection on bowel pain,[1],reversed bowel pain
same,duration of pain ameliorating effect in IBS patients,[2],at least 4 hours
